Results on ten compounds are retold here after patent publication US12415789B2, “Macrocycles comprising a 4-amido-2,4-pentadienoate moiety for the treatment of hypoxic cancers” (Aarhus Universitet, priority 2019, dated 2025).

What all share (format): cell-based, human
One assay has as its system PANC-1 cells. The experiment in a line: Viability assay (CellTiter Blue), PANC-1 cells, hypoxia vs normoxia. The note with it: for Index [3] Selectivity index (IC50 [2]/IC50 [1]): PANC1, normoxic IC50 / hypoxic IC50. The protocol:
(§1) PANC-1 and HaCat cells (PANC-1: RRID:CVCL 0480, taken from a person, HaCat: RRID:CVCL 0038) were cultured in DMEM (Gibco, Cat #: 21969-035) supplemented with FBS (10%, Gibco, Cat #: A31698-02), Penicillin/Streptomycin (1%, Sigma-Aldrich, Cat #: P0781), and Ala-Gln (200 μM, Sigma-Aldrich, Cat #: G8541). BxPC3 cells (RRID:CVCL 0186, taken from a person) were cultured in RPMI 1640 (Gibco, Cat #: 61870-010) supplemented with FBS (10%) and Penicillin/Streptomycin (1%). U2OS (RRID:CVCL 0042) and HCT116 cells (RRID:CVCL 0291, ATCC CCL-247) were cultured in McCoy's 5A (Sigma cat. no. M9309) supplemented with FBS (10%) and Penicillin/Streptomycin (1%). Cells were grown under normoxic conditions in T75 flasks (Biolite, Thermo Scientific, Cat #: 130190) in a humidified atmosphere with 5% CO2 at 37° C. For hypoxic conditions cells were placed in a modular incubator chamber (MIC-101, Billups-Rothenberg) equipped with a 10-cm dish with milliQ water and flushed with CO2/N2 (5%/95%, BioNERT, AGA Cat #: 100466065) for 8 minutes at 20-25 L/minute. Cells were passaged approximately every third day by trypsination (Sigma-Aldrich, Cat #: T4049) followed by transfer of ⅕^th of the cells to a new flask. All cell cultures were handled aseptically in a laminar air flow bench and grown in sterile-filtered (Jetbiofil, Cat #: FPE204500) medium according to ATCC's recommendations. All human cell lines were correctly identified by short tandem repeat analysis and tested free of mycoplasma contamination by MycoAlert (Lonza, Cat #: LT07-218).
(§2) Cells were seeded in black 96-well plates (2000 cells/well, 75 μL/well, ThermoFisher Scientific, Cat #: 137103) in complete medium. Subsequently, the cells were allowed to adhere to the substratum overnight. The next day, compounds were serially diluted in DMSO as 200× solutions. The 200× solutions of compounds were initially diluted in complete medium to 4× solutions containing 2% DMSO. Finally, the compounds were given to cells by the addition of 25 μL/well in triplicates resulting in 1× solutions of compounds in 100 μL/well. The cells were then incubated under either normoxia or hypoxia. 90 minutes before the end of the experiment, all cells were given CellTiter Blue (20 μL/well, Promega, Cat #: G8080) and reincubated under normoxia for the remaining time of the experiment. The viability of the cells was assessed by measuring fluorescence in a plate reader (ex/em: 552±10/598±10, Tecan Spark 10M). Data were normalized to the two lowest concentrations of compound and fitted to a 4-parameter nonlinear regression in Prism 7.04 for Windows, GraphPad Software, La Jolla Calif. USA. IC50 values were extrapolated as the X value at Y=50%. Results can be found in Table 1 and the corresponding dose-response curves seen in FIGS. 12 to 17 and in FIGS. 9 to 10.

In another assay the test system is HCT116 cells. In words: Viability assay (CellTiter Blue), HCT116 cells, hypoxia vs normoxia. Particulars: for Index [3] Selectivity index (IC50 [2]/IC50 [1]): HCT116, normoxic IC50 / hypoxic IC50. Here is the method: as §1, §2
In another assay the test system is BxPC3 cells. In words: Viability assay (CellTiter Blue), BxPC3 cells, hypoxia vs normoxia. The note with it: for Index [3] Selectivity index (IC50 [2]/IC50 [1]): BxPC3, normoxic IC50 / hypoxic IC50. The protocol:
as §1, §2

Where [1] appears, read: PANC1, hypoxic conditions, read-out: IC50 (μM) [1].
Setting [2] is: PANC1, normoxic conditions, read-out: IC50 (μM) [2].
[3] abbreviates: HCT116, hypoxic conditions, read-out: IC50 (μM) [1].
Setting [4] is: HCT116, normoxic conditions, read-out: IC50 (μM) [2].
Where [5] appears, read: BxPC3, hypoxic conditions, read-out: IC50 (μM) [1].
Setting [6] is: BxPC3, normoxic conditions, read-out: IC50 (μM) [2].

Where two headings read alike, the source gives them in different places.

With `CCCCCCCCCCCCc1ccc2c(c1)OCCNC(=O)CN(C)C(=O)/C=C/C(CO)NC2=O` (stereo not shown) [PH462, (E)-16-dodecyl-11-(hydroxymethyl)-7-methyl-3,4,6,7,11,12-hexahydro-benzo[n][1]oxa[4,7,12]triazacyclopentadecine-5,8,13(2H)-trione], the IC50 in the assay on PANC-1 cells (setting [1]), in the assay with PANC-1 cells (setting [2]), in the assay with HCT116 cells (setting [3]), in the assay on HCT116 cells (setting [4]), with BxPC3 cells (setting [5]) and in the assay with BxPC3 cells (setting [6]) was above 50 µM in each case.

As for `C=C1/C=C/C(=O)N(C)CC(=O)N[C@@H](CC(=O)N2CCOCC2)COc2cc(CCCCCCCCCCCC)ccc2C(=O)N1` [PH741, (S,E)-16-dodecyl-7-methyl-11-methylene-3-(2-morpholino-2-oxoethyl)-3,4,6,7,11,12-hexahydrobenzo[n][1]oxa[4,7,12]triazacyclopentadecine-5,8,13(2H)-trione], the 50% inhibitory concentration (IC50) in the assay on PANC-1 cells (setting [1]) was determined as 7.8 µM; in the assay with PANC-1 cells (setting [2]), 16.3 µM; in the assay with HCT116 cells (setting [3]), 3.3 µM; in the assay with HCT116 cells (setting [4]), 16.2 µM. Besides, the “Index [3] Selectivity index (IC50 [2]/IC50 [1])” value (“Index [3] Selectivity index” below) in the assay on PANC-1 cells was found to be 2.1; with HCT116 cells it was 4.9.

Take `CCCCCCCCCCCCc1ccc2c(c1)OC[C@H](CC(=O)OC)NC(=O)CN(C)C(=O)/C=C/[C@H](CO)NC2=O` [PH830, Methyl 2-((3S,11R,E)-16-dodecyl-11-(hydroxymethyl)-7-methyl-5,8,13-trioxo-2,3,4,5,6,7,8,11,12,13-decahydrobenzo[n][1]oxa[4,7,12]-triazacyclopentadecin-3-yl)acetate]: the IC50 in the assay on PANC-1 cells (setting [1]), with PANC-1 cells (setting [2]), with HCT116 cells (setting [3]), in the assay on HCT116 cells (setting [4]), in the assay with BxPC3 cells (setting [5]) and with BxPC3 cells (setting [6]) was above 50 µM in each case.

As for `C=C1/C=C/C(=O)N(C)CC(=O)N[C@@H](CC(=O)OC)COc2cc(CCCCCCCCCCCC)ccc2C(=O)N1` [PH832, Methyl (S,E)-2-(16-dodecyl-7-methyl-11-methylene-5,8,13-trioxo-2,3,4,5,6,7,8,11,12,13-decahydrobenzo[n][1]oxa[4,7,12]-triazacyclopentadecin-3-yl)acetate], the IC50 with PANC-1 cells (setting [1]) was 4.3 µM; in the assay with PANC-1 cells (setting [2]), 23.3 µM; with HCT116 cells (setting [3]), 5 µM; with HCT116 cells (setting [4]), 5.6 µM. For the same compound, the “Index [3] Selectivity index” value is 5.4 with PANC-1 cells and 1.1 in the assay on HCT116 cells.

Regarding `C#CCNC(=O)C[C@H]1COc2cc(CCCCCCCCCCCC)ccc2C(=O)NC(=C)/C=C/C(=O)N(C)CC(=O)N1` [PH845, (S,E)-2-(16-dodecyl-7-methyl-11-methylene-5,8,13-trioxo-2,3,4,5,6,7,8,11,12,13-decahydrobenzo[n][1]oxa[4,7,12]-triazacyclopentadecin-3-yl)-N-(prop-2-yn-1-yl)acetamide], the IC50 is 3.1 µM with PANC-1 cells (setting [1]), above 50 µM with PANC-1 cells (setting [2]), 4.2 µM in the assay with HCT116 cells (setting [3]) and above 50 µM in the assay with HCT116 cells (setting [4]). Moreover, the figures for the “Index [3] Selectivity index” value in the assay with PANC-1 cells and in the assay with HCT116 cells were above 16.4 and above 12.4, respectively.

As for `C=C1/C=C/C(=O)N(C)CC(=O)N2CC(F)(F)C[C@H]2COc2cc(CCCCCCCCCCCC)ccc2C(=O)N1` [PH905, (S,E)-16-dodecyl-2,2-difluoro-7-methyl-11-methylene-2,3,6,7,11,12,19,19a-octahydro-1H,5H-benzo[n]pyrrolo[2,1-c][1]oxa-[4,7,12]triazacyclopentadecine-5,8,13-trione], the IC50 in the assay on PANC-1 cells (setting [1]) worked out at 5.4 µM; in the assay with PANC-1 cells (setting [2]), 5.8 µM; in the assay on HCT116 cells (setting [3]) it was 3.7 µM; in the assay on HCT116 cells (setting [4]), 3.5 µM; in the assay with BxPC3 cells (setting [5]), 5.5 µM; in the assay on BxPC3 cells (setting [6]), 6.3 µM. The “Index [3] Selectivity index” value with PANC-1 cells is listed as 1.1; in the assay on HCT116 cells it was 1.0; with BxPC3 cells it was 1.1.

Regarding `C=C1/C=C/C(=O)N(C)CC(=O)N[C@@H](CC(=O)NC2CC2)COc2cc(CCCCCCCCCCCC)ccc2C(=O)N1` [PH906, (S,E)-N-cyclopropyl-2-(16-dodecyl-7-methyl-11-methylene-5,8,13-trioxo-2,3,4,5,6,7,8,11,12,13-decahydrobenzo[n][1]oxa[4,7,12]-triazacyclopentadecin-3-yl)acetamide], the IC50 with PANC-1 cells (setting [1]) was 2.3 µM; with PANC-1 cells (setting [2]) it was above 28 µM; in the assay on HCT116 cells (setting [3]), 1.4 µM; with HCT116 cells (setting [4]) it was above 28 µM. Also, the “Index [3] Selectivity index” value was above 12.1 in the assay with PANC-1 cells and above 20.7 with HCT116 cells.

Consider `CCCCCCCCCCCCc1ccc2c(c1)OC[C@H](CCCCNC(=O)OC(C)(C)C)NC(=O)CN(C)C(=O)/C=C/[C@H](CO)NC2=O` [PH908, tert-butyl (4-((3S,11R,E)-16-dodecyl-11-(hydroxymethyl)-7-methyl-5,8,13-trioxo-2,3,4,5,6,7,8,11,12,13-decahydrobenzo[n][1]oxa-[4,7,12]triazacyclopentadecin-3-yl)butyl)carbamate], for which the IC50 with PANC-1 cells (setting [1]) was above 50 µM; in the assay on PANC-1 cells (setting [2]), above 50 µM; with HCT116 cells (setting [3]), 14.7 µM; in the assay on HCT116 cells (setting [4]) it was 17.4 µM; with BxPC3 cells (setting [5]), above 50 µM; with BxPC3 cells (setting [6]) it was above 50 µM. In addition, the “Index [3] Selectivity index” value in the assay on HCT116 cells worked out at 1.2.

On to `C=C1/C=C/C(=O)N(C)CC(=O)N2CCC[C@H]2COc2cc(CCCCCCCCCCCC)ccc2C(=O)N1` [PH921, (S,E)-16-dodecyl-7-methyl-11-methylene-2,3,6,7,11,12,19,19a-octahydro-1H,5H-benzo[n]pyrrolo[2,1-c][1]oxa[4,7,12]triazacyclo-pentadecine-5,8,13-trione], for which the 50% inhibitory concentration (IC50) turned out to be 2.6 µM in the assay on PANC-1 cells (setting [1]); 13.7 µM in the assay with PANC-1 cells (setting [2]); 2.6 µM in the assay on HCT116 cells (setting [3]); 8.4 µM in the assay on HCT116 cells (setting [4]); 6 µM in the assay with BxPC3 cells (setting [5]); 12.3 µM in the assay on BxPC3 cells (setting [6]). Also, the “Index [3] Selectivity index” value with PANC-1 cells is 5.3; in the assay with HCT116 cells, 3.3; in the assay on BxPC3 cells, 2.1.

For the compound `Cn1c(COP(=O)(NCCBr)NCCBr)cnc1[N+](=O)[O-]` [TH302, Evofosfamide, reference compound], the IC50 in the assay with PANC-1 cells (Homo sapiens, PANC-1, PANC1, hypoxic conditions, read-out: IC50 (μM) [1]) worked out at 9.4 µM; with PANC-1 cells (Homo sapiens, PANC-1, PANC1, normoxic conditions, read-out: IC50 (μM) [2]), 69 µM; in the assay on HCT116 cells (Homo sapiens, HCT-116, HCT116, hypoxic conditions, read-out: IC50 (μM) [1]), 6.2 µM; in the assay with HCT116 cells (Homo sapiens, HCT-116, HCT116, normoxic conditions, read-out: IC50 (μM) [2]), 43 µM; with BxPC3 cells (Homo sapiens, BXPC-3, BxPC3, hypoxic conditions, read-out: IC50 (μM) [1]), 21 µM; in the assay with BxPC3 cells (Homo sapiens, BXPC-3, BxPC3, normoxic conditions, read-out: IC50 (μM) [2]) it was 71 µM. The “Index [3] Selectivity index” value in the assay with PANC-1 cells is recorded as 7.2; with HCT116 cells, 6.9; with BxPC3 cells, 3.4.
